Experiments:
Type in all cases: in vivo
[1] = system: redroot pigweed (Amaranthus retroflexus, AMARE); test: Pre-emerge test, greenhouse herbicide activity screening; settings: pre-emerge, 14 days after application, rating scale 0-100
How it was run: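 Plants grown in 10 cm pots of sandy loam mix received acetone-dissolved compounds through a moving flat-fan nozzle. Doses ranged from 15 to 1000 g ai/ha. Pre-emerge pots were seeded one day earlier, post-emerge pots 8–21 days earlier. Fourteen days on, each pot was graded 0–100 for damage.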

[2] = system: barnyardgrass (Echinochloa crus-galli, ECHCG); test: as above; settings: pre-emerge, 14 days after application, rating scale 0-100
How it was run: (§1)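 Applied at 15–1000 g ai/ha from acetone in 187 l/ha spray volume. Post-emergence applications included 0.25% v/v non-ionic surfactant and reached plants sown 8–21 days before. Pre-emergence applications were incorporated by surface watering. Efficacy or crop damage was rated on a 0–100 scale after 14 days.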

[3] = system: green foxtail (Setaria viridis, SETVI); test: as above; settings: pre-emerge, 14 days after application, rating scale 0-100
How it was run: as §1

[4] = system: ivyleaf morningglory (Ipomoea hederacea, IPOHE); test: as above; settings: pre-emerge, 14 days after application, rating scale 0-100
How it was run: as §1

[5] = system: johnsongrass (Sorghum halepense, SORHA); test: as above; settings: pre-emerge, 14 days after application, rating scale 0-100
How it was run: as §1

[6] = system: lambsquarters (Chenopodium album, CHEAL); test: as above; settings: pre-emerge, 14 days after application, rating scale 0-100
How it was run: as §1

[7] = system: large crabgrass (Digitaria sanguinalis, DIGSA); test: as above; settings: pre-emerge, 14 days after application, rating scale 0-100
How it was run: as §1

[8] = system: sicklepod (Cassia obtusifolia, CASOB); test: as above; settings: pre-emerge, 14 days after application, rating scale 0-100
How it was run: as §1

[9] = system: velvetleaf (Abutilon theophrasti, ABUTH); test: as above; settings: pre-emerge, 14 days after application, rating scale 0-100
How it was run: as §1

[10] = system: field corn (Zea mays L., var. Dekalb 535, CORN); test: Pre-emerge test, crop safety; settings: pre-emerge, 14 days after application, rating scale 0-100
How it was run: as §1

[11] = system: upland rice (Oryza sp., var. Tebonnet, RICE); test: Pre-emerge test, crop safety; settings: pre-emerge, 14 days after application, rating scale 0-100
How it was run: as §1

[12] = system: barnyardgrass (Echinochloa crus-galli, ECHCG); test: Post-emerge test, greenhouse herbicide activity screening; settings: post-emerge, 14 days after application, rating scale 0-100
How it was run: (§2)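 Compounds in acetone were track-sprayed at 15–1000 g ai/ha: pre-emergence onto soil sown the previous day, then top-watered to incorporate and later bottom-watered; post-emergence onto 2–3 leaf plants with 0.25% v/v surfactant, bottom-watered only. Ratings on a 0–100 phytotoxicity scale were taken at day 14.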

[13] = system: green foxtail (Setaria viridis, SETVI); test: as above; settings: post-emerge, 14 days after application, rating scale 0-100
How it was run: as §2

[14] = system: ivyleaf morningglory (Ipomoea hederacea, IPOHE); test: as above; settings: post-emerge, 14 days after application, rating scale 0-100
How it was run: as §2

[15] = system: johnsongrass (Sorghum halepense, SORHA); test: as above; settings: post-emerge, 14 days after application, rating scale 0-100
How it was run: as §2

[16] = system: lambsquarters (Chenopodium album, CHEAL); test: as above; settings: post-emerge, 14 days after application, rating scale 0-100
How it was run: as §2

[17] = system: large crabgrass (Digitaria sanguinalis, DIGSA); test: as above; settings: post-emerge, 14 days after application, rating scale 0-100
How it was run: as §2

[18] = system: redroot pigweed (Amaranthus retroflexus, AMARE); test: as above; settings: post-emerge, 14 days after application
How it was run: as §2

[19] = system: sicklepod (Cassia obtusifolia, CASOB); test: as above; settings: post-emerge, 14 days after application, rating scale 0-100
How it was run: as §2

[20] = system: velvetleaf (Abutilon theophrasti, ABUTH); test: as above; settings: post-emerge, 14 days after application, rating scale 0-100
How it was run: as §2

[21] = system: field corn (Zea mays L., var. Dekalb 535, CORN); test: Post-emerge test, crop safety; settings: post-emerge, 14 days after application, rating scale 0-100
How it was run: as §1

[22] = system: upland rice (Oryza sp., var. Tebonnet, RICE); test: Post-emerge test, crop safety; settings: post-emerge, 14 days after application, rating scale 0-100
How it was run: as §1

[23] = 63 g ai/ha, rating scale 0-100 (0 no damage, 100 complete death)
[24] = 250 g ai/ha, rating scale 0-100

## COc1cc(Cl)cc(Cl)c1-n1c(=O)cc(C(F)(F)F)n(C)c1=O [16-2]
[1]; 63 g ai/ha
  phytotoxicity rating AMARE: 40
[1]; 250 g ai/ha
  phytotoxicity rating AMARE: 100
[2]; 63 g ai/ha
  phytotoxicity rating ECHCG: 0
[2]; 250 g ai/ha
  phytotoxicity rating ECHCG: 10
[3]; 63 g ai/ha
  phytotoxicity rating SETVI: 10
[3]; 250 g ai/ha
  phytotoxicity rating SETVI: 60
[4]; 63 g ai/ha
  phytotoxicity rating IPOHE: 10
[4]; 250 g ai/ha
  phytotoxicity rating IPOHE: 50
[5]; 63 g ai/ha
  phytotoxicity rating SORHA: 0
[5]; 250 g ai/ha
  phytotoxicity rating SORHA: 30
[6]; 63 g ai/ha
  phytotoxicity rating CHEAL: 80
[6]; 250 g ai/ha
  phytotoxicity rating CHEAL: 100
[7]; 63 g ai/ha
  phytotoxicity rating DIGSA: 0
[7]; 250 g ai/ha
  phytotoxicity rating DIGSA: 50
[8]; 63 g ai/ha
  phytotoxicity rating CASOB: 0
[8]; 250 g ai/ha
  phytotoxicity rating CASOB: 60
[9]; 63 g ai/ha
  phytotoxicity rating ABUTH: 75
[9]; 250 g ai/ha
  phytotoxicity rating ABUTH: 100
[10]; 63 g ai/ha
  phytotoxicity rating CORN: 0
[10]; 250 g ai/ha
  phytotoxicity rating CORN: 0
[11]; 63 g ai/ha
  phytotoxicity rating RICE: 0
[11]; 250 g ai/ha
  phytotoxicity rating RICE: 0
[12]; 63 g ai/ha
  Post-emerge Herbicidal Activity ECHCG (phytotoxicity rating): 0
[12]; 250 g ai/ha
  Post-emerge Herbicidal Activity ECHCG (phytotoxicity rating): 0
[13]; 63 g ai/ha
  Post-emerge Herbicidal Activity SETVI (phytotoxicity rating): 0
[13]; 250 g ai/ha
  Post-emerge Herbicidal Activity SETVI (phytotoxicity rating): 0
[14]; 63 g ai/ha
  Post-emerge Herbicidal Activity IPOHE (phytotoxicity rating): 0
[14]; 250 g ai/ha
  Post-emerge Herbicidal Activity IPOHE (phytotoxicity rating): 0
[15]; 63 g ai/ha
  Post-emerge Herbicidal Activity SORHA (phytotoxicity rating): 0
[15]; 250 g ai/ha
  Post-emerge Herbicidal Activity SORHA (phytotoxicity rating): 0
[16]; 63 g ai/ha
  Post-emerge Herbicidal Activity CHEAL (phytotoxicity rating): 30
[16]; 250 g ai/ha
  Post-emerge Herbicidal Activity CHEAL (phytotoxicity rating): 70
[17]; 63 g ai/ha
  Post-emerge Herbicidal Activity DIGSA (phytotoxicity rating): 0
[17]; 250 g ai/ha
  Post-emerge Herbicidal Activity DIGSA (phytotoxicity rating): 0
[18]; [23]
  Post-emerge Herbicidal Activity AMARE (phytotoxicity rating): 60
[18]; [24]
  Post-emerge Herbicidal Activity AMARE (phytotoxicity rating): 60
[19]; 63 g ai/ha
  Post-emerge Herbicidal Activity CASOB (phytotoxicity rating): 0
[19]; 250 g ai/ha
  Post-emerge Herbicidal Activity CASOB (phytotoxicity rating): 10
[20]; 63 g ai/ha
  Post-emerge Herbicidal Activity ABUTH (phytotoxicity rating): 40
[20]; 250 g ai/ha
  Post-emerge Herbicidal Activity ABUTH (phytotoxicity rating): 70
[21]; 63 g ai/ha
  Post-emerge Herbicidal Activity CORN (crop damage rating): 0
[21]; 250 g ai/ha
  Post-emerge Herbicidal Activity CORN (crop damage rating): 10
[22]; 63 g ai/ha
  Post-emerge Herbicidal Activity RICE (crop damage rating): 0
[22]; 250 g ai/ha
  Post-emerge Herbicidal Activity RICE (crop damage rating): 20

## COc1c(Cl)cc(F)c(-n2c(=O)cc(C(F)(F)F)n(C)c2=O)c1SC(C)C [17-2]
[1]; 63 g ai/ha
  phytotoxicity rating AMARE: 30
[1]; 250 g ai/ha
  phytotoxicity rating AMARE: 60
[2]; 63 g ai/ha
  phytotoxicity rating ECHCG: 0
[2]; 250 g ai/ha
  phytotoxicity rating ECHCG: 0
[3]; 63 g ai/ha
  phytotoxicity rating SETVI: 0
[3]; 250 g ai/ha
  phytotoxicity rating SETVI: 0
[4]; 63 g ai/ha
  phytotoxicity rating IPOHE: 0
[4]; 250 g ai/ha
  phytotoxicity rating IPOHE: 0
[5]; 63 g ai/ha
  phytotoxicity rating SORHA: 0
[5]; 250 g ai/ha
  phytotoxicity rating SORHA: 0
[6]; 63 g ai/ha
  phytotoxicity rating CHEAL: 60
[6]; 250 g ai/ha
  phytotoxicity rating CHEAL: 90
[7]; 63 g ai/ha
  phytotoxicity rating DIGSA: 0
[7]; 250 g ai/ha
  phytotoxicity rating DIGSA: 0
[8]; 63 g ai/ha
  phytotoxicity rating CASOB: 0
[8]; 250 g ai/ha
  phytotoxicity rating CASOB: 0
[9]; 63 g ai/ha
  phytotoxicity rating ABUTH: 0
[9]; 250 g ai/ha
  phytotoxicity rating ABUTH: 20
[10]; 63 g ai/ha
  phytotoxicity rating CORN: 0
[10]; 250 g ai/ha
  phytotoxicity rating CORN: 0
[11]; 63 g ai/ha
  phytotoxicity rating RICE: 0
[11]; 250 g ai/ha
  phytotoxicity rating RICE: 0
[12]; 63 g ai/ha
  Post-emerge Herbicidal Activity ECHCG (phytotoxicity rating): 0
[12]; 250 g ai/ha
  Post-emerge Herbicidal Activity ECHCG (phytotoxicity rating): 0
[13]; 63 g ai/ha
  Post-emerge Herbicidal Activity SETVI (phytotoxicity rating): 0
[13]; 250 g ai/ha
  Post-emerge Herbicidal Activity SETVI (phytotoxicity rating): 0
[14]; 63 g ai/ha
  Post-emerge Herbicidal Activity IPOHE (phytotoxicity rating): 0
[14]; 250 g ai/ha
  Post-emerge Herbicidal Activity IPOHE (phytotoxicity rating): 20
[15]; 63 g ai/ha
  Post-emerge Herbicidal Activity SORHA (phytotoxicity rating): 0
[15]; 250 g ai/ha
  Post-emerge Herbicidal Activity SORHA (phytotoxicity rating): 0
[16]; 63 g ai/ha
  Post-emerge Herbicidal Activity CHEAL (phytotoxicity rating): 0
[16]; 250 g ai/ha
  Post-emerge Herbicidal Activity CHEAL (phytotoxicity rating): 40
[17]; 63 g ai/ha
  Post-emerge Herbicidal Activity DIGSA (phytotoxicity rating): 0
[17]; 250 g ai/ha
  Post-emerge Herbicidal Activity DIGSA (phytotoxicity rating): 0
[18]; [23]
  Post-emerge Herbicidal Activity AMARE (phytotoxicity rating): 0
[18]; [24]
  Post-emerge Herbicidal Activity AMARE (phytotoxicity rating): 30
[19]; 63 g ai/ha
  Post-emerge Herbicidal Activity CASOB (phytotoxicity rating): 0
[19]; 250 g ai/ha
  Post-emerge Herbicidal Activity CASOB (phytotoxicity rating): 10
[20]; 63 g ai/ha
  Post-emerge Herbicidal Activity ABUTH (phytotoxicity rating): 0
[20]; 250 g ai/ha
  Post-emerge Herbicidal Activity ABUTH (phytotoxicity rating): 50
[21]; 63 g ai/ha
  Post-emerge Herbicidal Activity CORN (crop damage rating): 0
[21]; 250 g ai/ha
  Post-emerge Herbicidal Activity CORN (crop damage rating): 0
[22]; 63 g ai/ha
  Post-emerge Herbicidal Activity RICE (crop damage rating): 0
[22]; 250 g ai/ha
  Post-emerge Herbicidal Activity RICE (crop damage rating): 0
